US20190127359A1, “Compounds & Methods for the Enhanced Degradation of Targeted Proteins & Other Polypeptides by an E3 Ubiquitin Ligase” (YALE UNIVERSITY, priority 2012, published 2019)
Like-named read-outs stand apart in the source and are kept apart here.

How the values were obtained:
[1] = target: T1, VHL (Homo sapiens, UniProt P40337); test: Fluorescence polarization competition assay (HIF-1α peptide FP displacement)
[2] = target: T1, VHL; test: WaterLOGSY and saturation transfer difference (STD) NMR binding; conditions: FIG. 2

SMILES: N#CCC(=O)N1C[C@H](O)C[C@H]1C(=O)NCc1ccc(Cl)cc1 [VL051]
- IC50 ([1]; IC50 (μM) 10% DMSO, 10% DMSO): > 1000 µM

SMILES: Cc1cc(CC(=O)N2C[C@H](O)C[C@H]2C(=O)NCc2ccc(N3CCCCC3)cc2)on1 [VL110]
- IC50 ([1]; IC50 (μM) 10% DMSO, 10% DMSO): 138 µM

SMILES: COc1ccccc1N1CCN(C(=O)[C@@H]2C[C@@H](O)CN2C(=O)Cc2cc(C)no2)CC1 [VL043]
- IC50 ([1]; IC50 (μM) 10% DMSO, 10% DMSO): > 1000 µM

SMILES: O=C(NCc1ccc(-c2ccccc2)cc1)[C@@H]1C[C@@H](O)CN1Cc1ccccc1Cl [VL143]
- IC50 ([1]; IC50 (μM) 1% DMSO, 1% DMSO): > 1000 µM
- IC50 ([1]; IC50 (μM) 10% DMSO, 10% DMSO): > 1000 µM

SMILES: Cc1c(N)cccc1C(=O)N1C[C@H](O)C[C@H]1C(=O)NCc1ccc(Cl)cc1 [VL071]
- IC50 ([1]; IC50 (μM) 10% DMSO, 10% DMSO): 10.4 µM

SMILES: N#Cc1cccc(C(=O)N2C[C@H](O)C[C@H]2C(=O)NCc2ccc(Cl)cc2)c1 [VL077]
- IC50 ([1]; IC50 (μM) 10% DMSO, 10% DMSO): 8.9 µM

SMILES: O=C(O)[C@@H]1C[C@@H](O)CN1 [L-Hyp]
- binding to VHL by WaterLOGSY NMR spectroscopy [2]: not

SMILES: N#Cc1ccc(CC(=O)N2C[C@H](O)C[C@H]2C(=O)NCc2ccc(Cl)cc2)cc1 [VL056]
- IC50 ([1]; IC50 (μM) 10% DMSO, 10% DMSO): 939 µM

SMILES: COC(=O)Cc1cn(CC(=O)N2C[C@H](O)C[C@H]2C(=O)NCc2ccc(-c3ccccc3)cc2)nn1 [VL136]
- IC50 ([1]; IC50 (μM) 1% DMSO, 1% DMSO): 540 µM
- IC50 ([1]; IC50 (μM) 10% DMSO, 10% DMSO): 28.2 µM

SMILES: O=C(NCc1ccc(Cl)cc1)[C@@H]1C[C@@H](O)CN1C(=O)c1cccnc1 [VL097]
- IC50 ([1]; IC50 (μM) 10% DMSO, 10% DMSO): 49.4 µM

SMILES: Cc1cc(CC(=O)N2C[C@H](O)C[C@H]2C(=O)N[C@@H](CO)c2ccc(Cl)cc2)on1 [VL161]
- IC50 ([1]; IC50 (μM) 1% DMSO, 1% DMSO): 35 µM
- IC50 ([1]; IC50 (μM) 10% DMSO, 10% DMSO): 36.4 µM

SMILES: Cc1cc(CC(=O)N2C[C@H](O)C[C@H]2C(=O)NCc2ccc(-c3cc[nH]c3)cc2)on1 [VL133, (2S,4R)—N-(4-(1H-pyrrol-3-yl)benzyl)-4-hydroxy-1-(2-(3-methylisoxazol-5-yl)acetyl)pyrrolidine-2-carboxamide]
- IC50 ([1]; IC50 (μM) 1% DMSO, 1% DMSO): 7.5 µM
- IC50 ([1]; IC50 (μM) 10% DMSO, 10% DMSO): 2.2 µM

SMILES: CON(C)C(=O)c1ccc(CNC(=O)[C@@H]2C[C@@H](O)CN2C(=O)Cc2cc(C)no2)cc1 [VL093]
- IC50 ([1]; IC50 (μM) 10% DMSO, 10% DMSO): 510 µM

SMILES: Cc1cc(CC(=O)N2C[C@H](O)C[C@H]2C(=O)NCc2ccc(-c3cnc[nH]3)cc2)on1 [VL158]
- IC50 ([1]; IC50 (μM) 1% DMSO, 1% DMSO): 180 µM
- IC50 ([1]; IC50 (μM) 10% DMSO, 10% DMSO): 266 µM

SMILES: Nc1ccc(C(=O)N2C[C@H](O)C[C@H]2C(=O)NCc2ccc(Cl)cc2)cc1 [VL072]
- IC50 ([1]; IC50 (μM) 10% DMSO, 10% DMSO): 29.5 µM

SMILES: O=C(NCc1ccc(Cl)cc1)[C@@H]1C[C@@H](O)CN1C(=O)c1ccccc1-c1cnco1 [VL121]
- IC50 ([1]; IC50 (μM) 1% DMSO, 1% DMSO): > 1000 µM
- IC50 ([1]; IC50 (μM) 10% DMSO, 10% DMSO): > 1000 µM

SMILES: Cc1cc(CC(=O)N2C[C@H](O)C[C@H]2C(=O)NCc2cccnc2)on1 [VL036]
- IC50 ([1]; IC50 (μM) 10% DMSO, 10% DMSO): 744 µM

SMILES: O=C(NCc1ccc(Cl)cc1)[C@@H]1C[C@@H](O)CN1C(=O)c1cccc2[nH]ccc12 [VL124]
- IC50 ([1]; IC50 (μM) 1% DMSO, 1% DMSO): 670 µM
- IC50 ([1]; IC50 (μM) 10% DMSO, 10% DMSO): 990 µM

SMILES: O=C(NCc1ccc(Cl)cc1)[C@@H]1C[C@@H](O)CN1C(=O)c1ccncc1 [VL096]
- IC50 ([1]; IC50 (μM) 10% DMSO, 10% DMSO): 32.5 µM

SMILES: Cc1cc(CC(=O)N2C[C@H](O)C[C@H]2C(=O)NCc2ccc(C(F)(F)F)cc2)on1 [VL046]
- IC50 ([1]; IC50 (μM) 10% DMSO, 10% DMSO): 215 µM

SMILES: Cc1cc(CC(=O)N2C[C@H](O)C[C@H]2C(=O)NCc2ccc(-c3ccncc3)cc2)on1 [VL150]
- IC50 ([1]; IC50 (μM) 1% DMSO, 1% DMSO): 41 µM
- IC50 ([1]; IC50 (μM) 10% DMSO, 10% DMSO): 16 µM

SMILES: Cc1cc(CC(=O)N2C[C@H](O)C[C@H]2C(=O)NCc2ccc(-c3ccn[nH]3)cc2)on1 [VL160]
- IC50 ([1]; IC50 (μM) 1% DMSO, 1% DMSO): 9 µM
- IC50 ([1]; IC50 (μM) 10% DMSO, 10% DMSO): 12.1 µM

SMILES: Cc1cc(CC(=O)N2C[C@H](O)C[C@H]2C(=O)NCCc2ccc(O)cc2)on1 [VL002, (2S,4R)-4-hydroxy-N-(4-hydroxyphenethyl)-1-(2-(3-methylisoxazol-5-yl)acetyl)pyrrolidine-2-carboxamide]
- IC50 ([1]; IC50 (μM) 10% DMSO, 10% DMSO): 241 µM
- IC50 ([1]; read-out: IC50 (μM) 1% DMSO, 1% DMSO): 120 µM

SMILES: Cc1nc(S)sc1CC(=O)N1C[C@H](O)C[C@H]1C(=O)NCc1ccc(Cl)cc1 [VL106]
- IC50 ([1]; IC50 (μM) 10% DMSO, 10% DMSO): > 1000 µM

SMILES: O=C(NCc1ccc(Cl)cc1)[C@@H]1C[C@@H](O)CN1C(=O)c1ccc([N+](=O)[O-])cc1 [VL067]
- IC50 ([1]; IC50 (μM) 10% DMSO, 10% DMSO): 70.7 µM
